From patent US8865894B2, “Oxazolidin-2-one compounds and uses thereof” (Novartis AG, priority 2012, dated 2014)
Read-outs that look alike come from different tables or passages of the source.

Legend:
human PI3Kβ = target: T1, human PI3Kβ (Homo sapiens, UniProt P42338); assay: Biochemical PI3Kbeta (KinaseGlo luminescent kinase assay); details: 1 μM ATP, mean of n measurements, read-out: PI3Kb/ IC50
T1 construct: made in house
Method: Test compounds were dissolved in DMSO (10 mM) and transferred into 1.4 mL flat bottom or V-shaped Matrix tubes carrying a unique 2D matrix chip by individual Novartis compound hubs. The numbers of these chips were distinctively linked to Novartis Pharma Numbers. The stock solutions were stored at −20° C. if not used immediately. For the test procedure the vials were defrosted and identified by a scanner whereby a working sheet was generated that guided the subsequent working steps.
Compounds were either manually diluted in DMSO for individual experiments (96 wells enabling 10 cpds at 8 (single points) concentrations) as described in or prepared as described below if tested for profiling in 384-wells. This format enabled the assay of maximally 40 individual test compounds at 8 concentrations (single points) including 4 reference compounds. The dilution protocol included the production of “pre-dilution plates”, “master plates” and “assay plates”.
96 polypropylene well plates were used as pre-dilution plates. A total of 4 pre-dilution plates were prepared including 10 test compounds each on the plate positions A1-A10, one standard compound at A11 and one DMSO control at A12. Programs have been written to run these pipetting steps on the HamiltonSTAR robots.
Identical “assay plates” were then prepared by pipetting 50 nL each of compound dilutions of the “master plates” into 384-well “assay plates”. The compounds were mixed with 4.5 μL of assays components plus 4.5 μL enzyme corresponding to a 1:181 dilution enabling the final concentration of 10, 3.0, 1.0, 0.3, 0.1, 0.03, 0.01 and 0.003 μM, respectively. The preparation of the “master plates” was handled by the Matrix PlateMate Plus robot and replication of “assay plates” by the HummingBird robot.
Catalytically active human PI3Kα, PI3Kβ, PI3Kδ, and mTOR were cloned, expressed and purified as described (Maira S M, Stauffer F, Brueggen J, Furet P, Schnell C, Fritsch C, Brachmann S, Chène P, de Pover A, Schoemaker K, Fabbro D, Gabriel D, Simonen M, Murphy L, Finan P, Sellers W, García-Echeverría C (2008), Mol Cancer Ther. 7:1851-63 and Maira S M, Pecchi S, Brueggen J, Huh K, Schnell C, Fritsch C, Nagel T, Wiesmann M, Brachmann S, Dorsch M, Chène P, Schoemaker K, De Pover A, Menezes D, Fabbro D, Sellers W, García-Echeverría C, Voliva C F (2011), Mol. Cancer Ther. accepted).
The luminescence-based ATP detection reagent KinaseGlo was obtained from Promega, (Cat. No. V6714, Lot No. 236161) through Catalys, Wallisellen, Switzerland. (L-alpha-phosphatidylinositol (PI), Liver, Bovine) were obtained from Avanti Polar Lipid (Cat. No. 840042C, Lot#LPI-274), Phosphatidylinositol-4,5-bisphosphate (PIP(4,5)2 (Avanti, Cat. No. 840046×) or L-α-phosphatidylinositol (PI) was obtained from Avanti Polar Lipid (Cat. No. 840042C, Lot#LPI-274). L-α-Phosphatidylserine (PS) was from Avanti Polar Lipid (Cat. No. 840032C), n-OctylGlucoside Avanti Polar Lipid (Cat. No. 10634425001). Luminescence is a well established readout to determine ATP concentrations and can thus be used to follow the activity of many kinases regardless of their substrate. The Kinase Glo Luminescent Kinase Assay (Promega, Madison/Wis., USA) is a homogeneous HTS method of measuring kinase activity by quantifying the amount of ATP remaining in solution following a kinase reaction.
50 nL of compound dilutions were dispensed onto black 384-well low volume Non Binding Styrene (NBS) plates (Costar Cat. No. NBS#3676) as described in section 8.2. L-α-phosphatidylinositol (PI), provided as 10 mg/ml solution in methanol, was transferred into a glass tube and dried under nitrogen beam. It was then resuspended in 3% OctylGlucoside by vortexing and stored at 4° C. 5 μL of a mix of PI/OG with the PI3Ka and Pi3Kb subtypes were added. Kinase reactions were started by addition of 5 μl of ATP-mix containing in a final volume 10 μL 10 mM TRIS-HCl pH 7.5, 3 mM MgCl2, 50 mM NaCl, 0.05% CHAPS, 1 mM DTT and 1 μM ATP, and occurred at room temperature.

mTOR = target: T2, mTOR (Mus musculus, UniProt Q9JLN9); assay: Cellular assay mTOR (phospho-T389 S6K1 SureFire in TSC1-/- MEF cells); type: cell-based
T2 construct: endogenous in cells; host or cells: TSC1-/- MEF (mouse embryo fibroblasts)
Text: A cell based assay (384-well format) was developed for determination of compound effects on cellular mTOR kinase activity in MEF (mouse embryo fibroblasts) cells derived from mice lacking TSC1 (Tuberosclerosis Complex1) a potent suppressor of mTOR kinase activity. Due to lack of TSC1 the mTOR kinase is constitutively activated resulting in permanent phosphorylation of Thr 389 of S6 kinase 1 (S6K1) which is one of the downstream targets of mTOR.
Using a SureFire Kit that enables to determine the phosphorylation of Thr389 on the S6K1 an assay was developed, validated and implemented in the Alpha-Screen format that allows the quantitative determination of phospho-T389 of S6K1 in cell lysates. […] These were in agreement with those values obtained with the biochemical mTOR ATP-binding assay enabling a quantitative comparison of potency of mTOR inhibitors.
TSC1−/− MEFs cells (Kwiatkowski, D. J., Zhang, H., Bandura, J. L., Heiberger, K. M., Glogauer, M., el-Hashemite, N., and Onda, H. (2002) Hum. Mol. Genet. 11, 525-534) were cultured in DMEM high glucose medium supplemented with 10% FBS (Invitrogen), 2 mM Glutamine and 1% (w/v) Penicillin/Streptomycin at 37° C., 5% CO2.
The SureFire kit for determination of P70S6kinase phosphorylation was purchased from Perkin Elmer (p70S6K p-T389, #TGR70S50K) and the assay was performed according to the instructions of the supplier and according to the generic method for SureFire assays. Shortly, 5 μL cell lysate per well were transferred to 384-well white proxy-plates (for luminescent readout) and mixed with […] and […] (final volume: 12 μL). After 3 h incubation in the dark at RT luminescence was read with the Envision Reader (Perkin Elmer). Untreated cells were used as control (high control) and cells treated with 3 μM BEZ235 were used as low control. The assay window between the signals obtained for the high and the low controls were defined as 100% and compound effects were expressed as percent inhibition. IC50 values were calculated from the dose response curves by graphical extrapolation.

[1] = TSC1-/- MEF cells, read-out: mTOR S6K(T389)_TSC1ko/ IC50

T1 sequence (P42338 2-1070 limits assumed): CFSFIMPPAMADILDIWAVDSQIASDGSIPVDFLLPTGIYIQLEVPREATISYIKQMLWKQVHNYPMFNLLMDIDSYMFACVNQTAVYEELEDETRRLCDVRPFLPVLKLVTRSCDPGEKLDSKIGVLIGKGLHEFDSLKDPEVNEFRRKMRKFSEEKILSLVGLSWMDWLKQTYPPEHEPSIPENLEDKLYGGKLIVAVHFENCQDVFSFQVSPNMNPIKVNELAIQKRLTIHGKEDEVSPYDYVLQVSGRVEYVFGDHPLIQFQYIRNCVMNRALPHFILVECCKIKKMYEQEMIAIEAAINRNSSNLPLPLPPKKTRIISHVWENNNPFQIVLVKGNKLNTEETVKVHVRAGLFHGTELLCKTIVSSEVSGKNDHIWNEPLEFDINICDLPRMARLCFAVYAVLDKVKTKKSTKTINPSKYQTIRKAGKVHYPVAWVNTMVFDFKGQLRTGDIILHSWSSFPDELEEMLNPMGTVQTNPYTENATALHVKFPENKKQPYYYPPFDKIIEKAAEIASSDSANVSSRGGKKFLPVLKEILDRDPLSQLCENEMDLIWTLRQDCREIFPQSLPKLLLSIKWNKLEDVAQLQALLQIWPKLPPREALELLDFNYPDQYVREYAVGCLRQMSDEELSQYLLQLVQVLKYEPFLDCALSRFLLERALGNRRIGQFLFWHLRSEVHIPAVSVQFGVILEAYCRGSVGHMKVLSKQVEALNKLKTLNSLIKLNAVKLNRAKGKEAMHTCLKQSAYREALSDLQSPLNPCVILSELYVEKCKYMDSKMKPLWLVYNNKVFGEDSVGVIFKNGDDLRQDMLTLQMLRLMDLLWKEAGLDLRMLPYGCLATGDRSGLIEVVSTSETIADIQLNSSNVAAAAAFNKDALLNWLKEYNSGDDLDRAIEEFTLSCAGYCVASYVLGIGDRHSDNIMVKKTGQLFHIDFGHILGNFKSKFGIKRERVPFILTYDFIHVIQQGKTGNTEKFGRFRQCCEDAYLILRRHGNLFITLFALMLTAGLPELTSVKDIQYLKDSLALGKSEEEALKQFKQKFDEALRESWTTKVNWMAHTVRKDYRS

SMILES | IC50 (human PI3Kβ) | IC50 (mTOR; [1]) | IC50 (mTOR; second value / 3 of the 4 values / 3 of the 5 values as per footnote, read-out: mTOR S6K(T389)_TSC1ko IC50, further individual values (footnotes))
C[C@H]1CN(c2cc(-c3cnc(N)nc3C(F)(F)F)nc(N3CCOCC3)n2)C(=O)O1 [Example 16, (S)-3-(2′-Amino-2-morpholin-4-yl-4′-trifluoromethyl-[4,5′]bipyrimidinyl-6-yl)-5-methyl-oxazolidin-2-one] | 20 nM | 942 nM | 
[2H]C1([2H])OC([2H])([2H])C([2H])([2H])N(c2nc(-c3cnc(N)nc3C(F)(F)F)cc(N3C(=O)OC[C@@H]3C)n2)C1([2H])[2H] [Example 17, (S)-3-(2′-amino-2-D8-morpholino-4′-(trifluoromethyl)-[4,5′-bipyrimidin]-6-yl)-4-methyloxazolidin-2-one] | 7 nM | 867 nM | 
C[C@H]1[C@@H](CO)OC(=O)N1c1cc(-c2cnc(N)nc2C(F)(F)F)nc(N2CCOCC2)n1 [Example 19, (4S,5S)-3-(2′-Amino-2-morpholin-4-yl-4′-trifluoromethyl-[4,5′]bipyrimidinyl-6-yl)-5-hydroxymethyl-4-methyl-oxazolidin-2-one] | 5 nM | 423 nM | 
C[C@H]1[C@@H](CCO)OC(=O)N1c1cc(-c2cnc(N)nc2C(F)(F)F)nc(N2CCOCC2)n1 [Example 23, (4S,5R)-3-(2′-Amino-2-morpholino-4′-(trifluoromethyl)-[4,5′-bipyrimidin]-6-yl)-5-(2-hydroxyethyl)-4-methyloxazolidin-2-one] | 11 nM | 1110 nM | 

Continued by falling IC50 (human PI3Kβ), values first:

IC50 (human PI3Kβ) | IC50 (mTOR; [1]) | IC50 (mTOR; second value / 3 of the 4 values / 3 of the 5 values as per footnote, read-out: mTOR S6K(T389)_TSC1ko IC50, further individual values (footnotes)) | SMILES
35 nM | 942 nM |  | Nc1ncc(-c2cc(N3C(=O)O[C@H]4COC[C@H]43)nc(N3CCOCC3)n2)c(C(F)(F)F)n1 [Example 21, (3aR,6aR)-3-(2′-amino-2-morpholino-4′-(trifluoromethyl)-[4,5′-bipyrimidin]-6-yl)-tetrahydrofuro[3,4-d]oxazol-2(3H)-one]
21 nM | 727 nM | > 2270 nM | C[C@H]1[C@H](CO)OC(=O)N1c1cc(-c2cnc(N)nc2C(F)(F)F)nc(N2CCOCC2)n1 [Example 15, (4S,5R)-3-(2′-Amino-2-morpholin-4-yl-4′-trifluoromethyl-[4,5′]bipyrimidinyl-6-yl)-5-hydroxymethyl-4-methyl-oxazolidin-2-one]
18 nM | > 2270 nM |  | Nc1ncc(-c2cc(N3C[C@@H](CO)OC3=O)nc(N3CCOCC3)n2)c(C(F)(F)F)n1 [Example 14, (S)-3-(2′-Amino-2-morpholin-4-yl-4′-trifluoromethyl-[4,5′]bipyrimidinyl-6-yl)-5-hydroxymethyl-oxazolidin-2-one]
11 nM | > 2270 nM |  | Nc1ncc(-c2cc(N3C[C@H](CO)OC3=O)nc(N3CCOCC3)n2)c(C(F)(F)F)n1 [Example 20, (R)-3-(2′-Amino-2-morpholin-4-yl-4′-trifluoromethyl-[4,5′]bipyrimidinyl-6-yl)-5-hydroxymethyl-oxazolidin-2-one]
4 nM | 794 nM |  | C[C@H]1OC(=O)N(c2cc(-c3cnc(N)nc3C(F)(F)F)nc(N3CCOCC3)n2)[C@H]1CO [Example 18, (4S,5R)-3-(2′-Amino-2-morpholin-4-yl-4′-trifluoromethyl-[4,5′]bipyrimidinyl-6-yl)-4-hydroxymethyl-5-methyl-oxazolidin-2-one]
